Reference: paper PMC6270751, “N-Substituted 5-Amino-6-methylpyrazine-2,3-dicarbonitriles: Microwave-Assisted Synthesis and Biological Properties” (Molecules, 2014)
Values after ≈ are worked out from the molar mass of the structure shown. Values joined by “and” are separate entries in the source; they are usually repeats but may differ in a detail not shown here. Equal entries are not always repeated. Where two headings read alike, the source gives them in different places.

Tests used:
[1] = system: photosynthetic electron transport (PET) in spinach chloroplasts; test: Inhibition of photosynthetic electron transport (PET) in spinach chloroplasts, DCPIP photoreduction; assay type: biochemical, Spinacia oleracea L.; details: for IC50 / IC50 PET inhibition in spinach chloroplasts: chlorophyll 30 mg/L, phosphate buffer pH 7.2
Method: Chloroplasts were prepared from spinach (Spinacia oleracea L.) according to Masarovicova and Kralova. The inhibition of photosynthetic electron transport (PET) in spinach chloroplasts was determined spectrophotometrically (Genesys 6, Thermo Scientific, Madison, WI, USA) using an artificial electron acceptor 2,6-dichlorophenol-indophenol (DCPIP) according to Kralova et al. and the rate of photosynthetic electron transport (PET) was monitored as a photo-reduction of DCPIP. The measurements were carried out in a phosphate buffer (0.02 mol/L, pH 7.2) containing sucrose (0.4 mol/L), MgCl2 (0.005 mol/L) and NaCl (0.015 mol/L). The chlorophyll content was 30 mg/L in these experiments and the samples were irradiated (~100 W/m^2) from a 10 cm distance with halogen lamp (250 W) using a 4 cm water filter to prevent warming of the samples (suspension temperature […]). The studied compounds were dissolved in DMSO due to their limited water solubility. […] The inhibitory efficiency of the studied compounds was expressed as the IC50 values, i.e., molar concentration of the compounds causing 50% decrease in the oxygen evolution relative to the untreated control.

[2] = system: M. tuberculosis H37Rv CNCTC My 331/88; test: Antimycobacterial in vitro screening, microdilution broth panel method, Alamar Blue; assay type: cell-based, Mycobacterium tuberculosis; details: 37 °C; for MIC: Mycobacterium tuberculosis, H37RV, 336 h, pH 6, Sula's medium pH 6.0, 14 days; for MIC M.tuberculosis H37Rv: Sula's medium pH 6.0, 14 days
[3] = Lipophilicity log k by RP-HPLC; details: for log k: RP-HPLC capacity factor, C18, MeOH 70%/H2O 30%, 30 °C; for π: π = log k(substituted) – log k(unsubstituted)
From the text: Experimental lipophilicity parameter log k was ascertained using an Agilent Technologies 1200 SL HPLC system with a SL G1315C Diode-Array Detector, ZORBAX XDB-C18 5 μm, 4 × 4 mm, Part No. 7995118-504 chromatographic pre-column and ZORBAX Eclipse XDB-C18 5 μm, 4.6 × 250 mm, Part No. 7995118-585 column (Agilent Technologies Inc., Colorado Springs, CO, USA). The separation process was controlled by Agilent ChemStation, version B.04.02 extended by spectral module (Agilent Technologies Inc.). A solution of MeOH (HPLC grade, 70%) and H2O (HPLC-Milli-Q Grade, 30%) was used as mobile phase. The total flow of the column was 1.0 mL/min, injection 20 μL, column temperature 30 °C. Detection wavelength λ= 210 nm and monitor wavelength λ= 270 nm were chosen for this measurement. The KI methanol solution was used for the dead time (TD) determination. Retention times (TR) of synthesized compounds were measured in minutes. The capacity factors k were calculated using Microsoft Excel according to formula k = (TR − TD)/TD, where TR is the retention time of the solute and TD denotes the dead time obtained via an unretained analyte. Log k, calculated from the capacity factor k, is used as the lipophilicity index converted to log P scale.

[4] = system: M. kansasii CNCTC My 235/80; test: Antimycobacterial in vitro screening, non-tuberculosis strain M. kansasii; assay type: cell-based, Mycobacterium kansasii; details: result in words
M. avium CNCTC My 152/73 = test: Antimycobacterial in vitro screening, non-tuberculosis strain M. avium; assay type: cell-based, Mycobacterium avium; details: result in words
[5] = system: photosynthetic electron transport (PET) in spinach chloroplasts; parameters: method as in earlier work; details: DCMU standard; read-out: IC50 PET inhibition in spinach chloroplasts (standard); cited from earlier work
[6] = system: Trichophyton mentagrophytes 445; test: Antifungal in vitro screening, microdilution broth method; assay type: cell-based; details: for activity against Trichophyton mentagrophytes: result in words; for MIC: Trichophyton mentagrophytes, 445, RPMI 1640, pH 7.0, 35 °C, read-out: MIC against Trichophyton mentagrophytes
Method: Antifungal evaluation was also accomplished with microdilution broth method. On the contrary, there was used RPMI 1640 broth with glutamine as medium and conditions were humid and dark atmosphere, pH 7.0 (buffered with 3-morpholinopropane-1-sulfonic acid) and 35 °C. Eight fungal strains were used (Candida albicans ATCC 44859, Candida tropicalis 156, Candida krusei E28, Candida glabrata 20/I, Trichosporon asahii 1188, Aspergillus fumigatus 231, Absidia corymbifera 272, Trichophyton mentagrophytes 445) together with 4 antimycotic standards amphotericin B, voriconazole, nystatin and fluconazole.

Row | Compound | IC50 [1] [µM] | MIC [2] [µg/mL] | log k [3] | π [3] | activity against M. kansasii [4] | activity against M. avium 152 (M. avium CNCTC My 152/73) | MIC M.tuberculosis H37Rv [2] [µg/mL] | IC50 PET inhibition in spinach chloroplasts [1] | IC50 [5] | PET inhibitory activity relative to DCMU (times lower) ([1]; ratio of IC50 to standard DCMU) [times] | activity against Trichophyton mentagrophytes [6] | MIC [6] [µM]
1 | Cc1ccc(CNc2nc(C#N)c(C#N)nc2C)cc1 [Compound 4, 5-Methyl-6-[(4-methylbenzyl)amino]pyrazine-2,3-dicarbonitrile] | 105 | 25 (≈ 94.9 µM) | 0.5157 | 0.2163 |  |  |  |  |  |  |  | 
2 | Cc1nc(C#N)c(C#N)nc1NCc1ccc(C(F)(F)F)cc1 [Compound 11, 5-Methyl-6-{[4-(trifluoromethyl)benzyl]amino}pyrazine-2,3-dicarbonitrile] | 39.6 | 6.25 (≈ 19.7 µM) | 0.5626 | 0.2632 | active | active |  |  |  |  |  | 
3 | Cc1ccccc1CNc1nc(C#N)c(C#N)nc1C [Compound 1, 5-Methyl-6-[(2-methylbenzyl)amino]pyrazine-2,3-dicarbonitrile] | 114 | > 100 | 0.4668 | 0.1674 |  |  | >100 |  |  |  |  | 
4 | COc1ccc(CNc2nc(C#N)c(C#N)nc2C)cc1 [Compound 5, 5-[(4-Methoxybenzyl)amino]-6-methylpyrazine-2,3-dicarbonitrile] | 465 | > 100 | 0.2820 | −0.0174 |  |  | >100 |  |  |  |  | 
5 | NNC(=O)c1ccncc1 [INH, isoniazid, reference compound] |  | 1.56 (≈ 11.4 µM) |  |  |  |  |  |  |  |  |  | 
6 | Cc1nc(C#N)c(C#N)nc1NCc1ccccc1 [Compound 6, 5-(Benzylamino)-6-methylpyrazine-2,3-dicarbonitrile] |  | 25 (≈ 100 µM) | 0.2994 | 0 |  |  |  | inactive |  |  |  | 
7 | Cc1nc(C#N)c(C#N)nc1NCc1cccc(Cl)c1 [Compound 8, 5-[(3-Chlorobenzyl)amino]-6-methylpyrazine-2,3-dicarbonitrile] | 57.4 | 12.5 (≈ 44.1 µM) | 0.5172 | 0.2178 |  |  |  |  |  |  |  | 
8 | CN(C)C(=O)Nc1ccc(Cl)c(Cl)c1 [DCMU, 3-(3,4-dichlorophenyl)-1,1-dimethylurea] |  |  |  |  |  |  |  |  | ~1.9 µM and 1.9 µM |  |  | 
9 | COc1ccc(CNc2nc(C#N)c(C#N)nc2C)c(OC)c1 [Compound 13, 5-[(2,4-Dimethoxybenzyl)amino]-6-methylpyrazine-2,3-dicarbonitrile] |  | 25 (≈ 80.8 µM) | 0.3699 | 0.0705 |  |  |  | inactive |  |  |  | 
10 | NC(=O)c1cnccn1 [PZA, pyrazinamide, reference compound] |  | 12.5 (≈ 102 µM) |  |  |  |  |  |  |  |  |  | 
11 | Cc1nc(C#N)c(C#N)nc1NCc1cccc(C(F)(F)F)c1 [Compound 2, 5-Methyl-6-{[3-(trifluoromethyl)benzyl]amino}pyrazine-2,3-dicarbonitrile] | 37.7 | 12.5 (≈ 39.4 µM) | 0.5369 | 0.2375 |  |  |  |  |  |  |  | 
12 | Cc1nc(C#N)c(C#N)nc1NCc1cccc([N+](=O)[O-])c1 [Compound 14, 5-Methyl-6-[(3-nitrobenzyl)amino]pyrazine-2,3-dicarbonitrile] | 487 | 12.5 (≈ 42.5 µM) | 0.1808 | −0.1186 |  |  |  |  |  |  |  | 
13 | Cc1nc(C#N)c(C#N)nc1NCc1ccc(Cl)c(Cl)c1 [Compound 3, 5-[(3,4-Dichlorobenzyl)amino]-6-methylpyrazine-2,3-dicarbonitrile] | 16.4 | 6.25 (≈ 19.6 µM) | 0.7538 | 0.4544 |  |  |  |  |  | 8.6 |  | 
14 | Cc1nc(C#N)c(C#N)nc1NCc1ccc(Cl)cc1 [Compound 15, 5-[(4-Chlorobenzyl)amino]-6-methylpyrazine-2,3-dicarbonitrile] | 86.5 | 12.5 (≈ 44.1 µM) | 0.5384 | 0.2390 |  |  |  |  |  |  | insignificant activity | 
15 | Cc1nc(C#N)c(C#N)nc1NCc1ccccc1Cl [Compound 9, 5-[(2-Chlorobenzyl)amino]-6-methylpyrazine-2,3-dicarbonitrile] | 79 | 6.25 (≈ 22 µM) | 0.4663 | 0.1669 |  |  |  |  |  |  |  | 
16 | Cc1nc(C#N)c(C#N)nc1NCc1ccccc1F [Compound 10, 5-[(2-Fluorobenzyl)amino]-6-methylpyrazine-2,3-dicarbonitrile] | 196 | 12.5 (≈ 46.8 µM) | 0.3042 | 0.0048 |  |  |  |  |  |  | insignificant activity | 500 (≈ 134 µg/mL)
17 | Cc1nc(C#N)c(C#N)nc1NCc1ccc(N)cc1 [Compound 7, 5-[(4-Aminobenzyl)amino]-6-methylpyrazine-2,3-dicarbonitrile] |  | 25 (≈ 94.6 µM) | −0.2014 | −0.5008 |  |  |  | inactive |  |  | insignificant activity | 500 (≈ 132 µg/mL)
18 | Cc1nc(C#N)c(C#N)nc1NCc1ccccc1C(F)(F)F [Compound 12, 5-Methyl-6-{[2-(trifluoromethyl)benzyl]amino}pyrazine-2,3-dicarbonitrile] | 71.6 | 12.5 (≈ 39.4 µM) | 0.4865 | 0.1871 | active | active |  |  |  |  |  | 125 (≈ 39.7 µg/mL)
